Data set [1] concerns Spontaneously Hypertensive Rats. Kind of data set: blood pressure lowering after oral administration, Spontaneously Hypertensive Rats (Table 2). The class given is in vivo. An excerpt:
|Spontaneously Hypertensive Rats

Data set [2] is described as follows: stress test, 2 weeks, heat or light (stability). Format: physicochemical. As to the method: The hydrochloride is unstable even at ambient temperature and a stress test gave, after heating for 2 weeks at 45° C. in the dark, 10% of decomposition products and at ambient temperature in the light 30% of the compound had decomposed after 2 weeks.
In addition, it is also stable under the above-mentioned stress conditions (2 weeks at 45° C. in the dark and 2 weeks at ambient temperature in the light).

Data set [3] can be described thus: Solubility in water and artificial gastric juice (Table 1). Format: physicochemical.
Data set [4] in a line: pharmacological results, blood pressure lowering activity compared with other derivatives. The class given is in vivo. The following applies: in comparison with the other derivatives, in words. An excerpt: The pharmacological results are even more marked in the case of the […] which were obtained according to the usual methods of racemate separation.
Data set [5] in a line: animal experiments, commencement of activity. Format: in vivo. The following applies: in words.
The mark [6] stands for this setting: Spontaneously Hypertensive Rats, 1 mg/kg PO, n = 6, 1 mg/kg.

Structures are written as SMILES. Structures can show the parent of a compound that is named as a salt. Where two headings read alike, the source gives them in different places.

In the case of `CC1=C(C(=O)OCCN(C)Cc2ccccc2)C(c2ccccc2C(F)(F)F)c2c(ccnc2OC(C)C)N1` (single isomer, unassigned; (+)) [Fumarate, (+)-1,4-dihydro-5-isopropoxy-2-methyl-4-(2-trifluoromethylphenyl)1,6-naphthyridine-3-carboxylic acid [2-(N-methyl-N-phenyl-methylamino)-ethyl] ester fumarate], the “blood pressure lowering action” value in data set [1] (setting [6]) is recorded as 26% ± 1.7; in data set [1] (rats, oral, fumarate compared with hydrochloride, in words), “substantially stronger”. The commencement of activity entry in data set [1] (rats, oral administration, fumarate compared with hydrochloride, in words) is “somewhat later”. For the same compound, the “stability under stress conditions” value in data set [2] (2 weeks at 45° C. in the dark and 2 weeks at ambient temperature in the light, in words) was “stable”. Also, in data set [3], the “Solubility in Artificial Gastric Juice” value turned out to be 1.5%. Further, the “solubility in water” value in data set [3] (in words) was “considerable lower water solubility”; in data set [3] (water), 0.1%.

Regarding `CC1=C(C(=O)OCCN(C)Cc2ccccc2)C(c2ccccc2C(F)(F)F)c2c(ccnc2OC(C)C)N1` (racemic) [(±), (±)-1,4-dihydro-5-isopropoxy-2-methyl-4-(2-trifluoromethylphenyl)-1,6-naphthyridine-3-carboxylic acid [2-(N-methyl-N-phenyl-methylamino)-ethyl] ester fumarate], in data set [4], the “blood pressure lowering activity” value is recorded as “especially marked blood pressure lowering activity”.

Turning to `CC1=C(C(=O)OCCN(C)Cc2ccccc2)C(c2ccccc2C(F)(F)F)c2c(ccnc2OC(C)C)N1` (single isomer, unassigned; (+)) [(+)-1,4-dihydro-5-isopropoxy-2-methyl-4-(2-trifluoro-methylphenyl)-1,6-naphthyridine-3-carboxylic acid [2-(N-methyl-N-phenylmethylamino)-ethyl] ester], the “blood pressure lowering activity” value in data set [4] is on record as “Especially active”.

In the case of `CC1=C(C(=O)OCCN(C)Cc2ccccc2)C(c2ccccc2C(F)(F)F)c2c(ccnc2OC(C)C)N1` (single isomer, unassigned) [Hydrochloride, reference compound], the “blood pressure lowering action” value in data set [1] (setting [6]) is recorded as 17% ± 4.4. In addition, the commencement of activity entry in data set [5] is “very rapid commencement of activity”. Further, the degraded at 336 h came to 10% in data set [2] (after heating for 2 weeks at 45° C. in the dark, read-out: decomposition products) and 30% in data set [2] (ambient temperature in the light, after 2 weeks, read-out: decomposed compound). In data set [2] (ambient temperature, in words), the stability entry was “unstable”. The “Solubility in Artificial Gastric Juice” value in data set [3] was found to be 20%. Also, the “solubility in water” value is recorded as “good solubility” in data set [3] (in words) and 20% in data set [3] (water).

These data come from US5039679A, “Certain derivatives of 1,4-dihydro-5-isopropoxy-1,6-naphthyridine-3-carboxylic acid, pharmaceutical compositions containing them, and methods of using them” (Goedecke Aktiengesellschaft, priority 1989, dated 1991).
